The values below come from US8105797B2, “Diagnostic test” (priority 2004, dated 2012).

This experiment relates to PBMCs from healthy unexposed BCG-vaccinated donors. Format: cell-based, human.
Turning to “AAKLAGLVFPQPPAP (listed as Mycobacterium tuberculosis) [16-30, from Rv3878]”, the “response of BCG-vaccinated unexposed donor to individual peptide” value was “responded”.

Turning to “DTFYDRAQEYSQVLQ (listed as Mycobacterium tuberculosis) [26-40, from Rv3879c, pool 1]”, the “response of BCG-vaccinated unexposed donor to individual peptide” value is “responded”. Next, “ESLVSDGLPGVKAAL (listed as Mycobacterium tuberculosis) [61-75, from Rv3878]”: “responded”; “LDPGASQSTTNPIFG (listed as Mycobacterium tuberculosis) [peptide 174-188, from Rv3873]”: “responded”; LTATNFFGINTIPIA [119-133]: “responded”. Next, “YFIRMWNQAALAMEV (listed as Mycobacterium tuberculosis) [139-153, from pool 2 of Rv3873]”: “responded”.
